Laboratory results from paper PMC10463010 (RSC Advances, 2023).

Experiments:
[1] = test system: NO production in RAW264.7 stimulated by LPS; test: NO production in LPS-stimulated RAW 264.7; type: cell-based; conditions: Mus musculus, RAW264.7, read-out: % inhibition of NO production
[2] = Cytotoxic effect on RAW 264.7 using MTT assay; type: cell-based; conditions: mouse, RAW 264.7 cells
[3] = molecular target: acetylcholinesterase (AChE) (Homo sapiens, UniProt P22303); test: Acetylcholinesterase inhibition assay; type: biochemical
acetylcholinesterase (AChE), sequence (P22303 32-614, species assumed): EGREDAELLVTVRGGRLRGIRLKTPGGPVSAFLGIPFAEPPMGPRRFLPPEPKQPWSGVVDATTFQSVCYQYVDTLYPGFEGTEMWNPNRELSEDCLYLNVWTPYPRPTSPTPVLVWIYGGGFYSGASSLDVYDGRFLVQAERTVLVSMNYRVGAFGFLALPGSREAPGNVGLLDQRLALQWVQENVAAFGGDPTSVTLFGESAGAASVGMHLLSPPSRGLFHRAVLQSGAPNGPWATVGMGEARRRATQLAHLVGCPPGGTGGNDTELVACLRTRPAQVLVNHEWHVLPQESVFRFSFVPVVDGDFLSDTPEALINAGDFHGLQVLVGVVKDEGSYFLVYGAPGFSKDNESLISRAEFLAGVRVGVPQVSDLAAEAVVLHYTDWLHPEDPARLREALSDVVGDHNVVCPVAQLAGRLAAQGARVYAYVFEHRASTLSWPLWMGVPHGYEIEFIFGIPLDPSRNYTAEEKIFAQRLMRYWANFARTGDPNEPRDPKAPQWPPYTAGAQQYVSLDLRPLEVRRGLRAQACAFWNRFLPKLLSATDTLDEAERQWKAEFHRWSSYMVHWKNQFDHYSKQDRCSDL

[4] = In vitro hydrolysis / chemical stability in buffers; type: physicochemical; conditions: 0.1 M HCl (simulated gastric conditions), pH 1.4
TNF-α = TNF-α level in LPS-induced RAW 264.7; type: cell-based; conditions: RAW 264.7, in comparison to LPS treated cells
IL-1β = IL-1β level in LPS-induced RAW 264.7; type: cell-based; conditions: RAW 264.7, in comparison to LPS treated cells
IL-6 = IL-6 level in LPS-induced RAW 264.7; type: cell-based
SK-N-SH Cells = conditions: Aβ-induced SK-N-SH cells, increased from 20%; cited from earlier work
TNF = conditions: 20 μM, LPS stimulated RAW264.7; cited from earlier work

Compound	inhibition at 25 µM [1] [%]	viability at 24 h, 50 µM [2] [%]	also measured
Cc1ccc(C(C)C)c(OC(=O)Cn2cc(COC(=O)Cn3cnc4c3c(=O)n(C)c(=O)n4C)nn2)c1 [15b, (1-(2-(2-Isopropyl-5-methylphenoxy)-2-oxoethyl)-1H-1,2,3-triazol-4-yl)methyl-2-(1,3-dimethyl-2,6-dioxo-1,2,3,6-tetrahydro-7H-purin-7-yl)acetate]	68.6 ± 0.92	97 ± 0.6	
Cn1c(=O)c2c(ncn2CC(=O)OCc2cn(-c3cc(=O)oc4ccccc34)nn2)n(C)c1=O [15c, (1-(2-Oxo-2H-chromen-4-yl)-1H-1,2,3-triazol-4-yl)methyl-2-(1,3-dimethyl-2,6-dioxo-1,2,3,6-tetrahydro-7H-purin-7-yl)acetate]	85 ± 0.88	88 ± 0.8	IC50 [3]: 9.8 ± 0.7 µM
Cn1c(=O)c2c(ncn2CC(=O)N/N=C/c2ccccc2)n(C)c1=O [18a, E-N′-Benzylidene-2-(1,3-dimethyl-2,6-dioxo-1,2,3,6-tetrahydro-7H-purin-7-yl)acetohydrazide]	65.4 ± 0.84	94 ± 0.2	
Cn1c(=O)c2c(ncn2CC(=O)N/N=C/c2ccc(O)cc2)n(C)c1=O [18b, (E)-2-(1,3-Dimethyl-2,6-dioxo-1,2,3,6-tetrahydro-7H-purin-7-yl)-N′-(4-hydroxybenzylidene)acetohydrazide]	71.8 ± 0.9	87 ± 0.8	
COc1ccc(OC)c(/C=N/NC(=O)Cn2cnc3c2c(=O)n(C)c(=O)n3C)c1 [18c, E-N′-(2,5-Dimethoxybenzylidene)-2-(1,3-dimethyl-2,6-dioxo-1,2,3,6-tetrahydro-7H-purin-7-yl)acetohydrazide]	75 ± 0.88	88 ± 0.8	
COc1ccc(/C=N/NC(=O)Cn2cnc3c2c(=O)n(C)c(=O)n3C)cc1OC [18d, E-N′-(3,4-Dimethoxybenzylidene)-2-(1,3-dimethyl-2,6-dioxo-1,2,3,6-tetrahydro-7H-purin-7-yl)acetohydrazide]	70.7 ± 0.87	90 ± 1	
COc1cc(/C=N/NC(=O)Cn2cnc3c2c(=O)n(C)c(=O)n3C)cc(OC)c1OC [18e, (E)-2-(1,3-Dimethyl-2,6-dioxo-1,2,3,6-tetrahydro-7H-purin-7-yl)-N′-(3,4,5-trimethoxybenzylidene)acetohydrazide]	71.8 ± 0.9	92 ± 1	
COc1cccc(/C=N/NC(=O)Cn2cnc3c2c(=O)n(C)c(=O)n3C)c1 [18f, (E)-2-(1,3-Dimethyl-2,6-dioxo-1,2,3,6-tetrahydro-7H-purin-7-yl)-N′-(3-methoxybenzylidene)acetohydrazide]	63.2 ± 0.93	91 ± 1	
Cn1c(=O)c2c(ncn2CC(=O)N/N=C/c2ccccc2O)n(C)c1=O [18g, (E)-2-(1,3-Dimethyl-2,6-dioxo-1,2,3,6-tetrahydro-7H-purin-7-yl)-N′-(2-hydroxybenzylidene)acetohydrazide]	66.4 ± 0.79	92 ± 1	
Cn1c(=O)c2c(ncn2CC(=O)N/N=C/c2ccc3c(c2)OCO3)n(C)c1=O [18h, (E)-N′-(Benzo[d][1,3]dioxol-5-ylmethylene)-2-(1,3-dimethyl-2,6-dioxo-1,2,3,6-tetrahydro-7H-purin-7-yl)acetohydrazide]	96.6 ± 0.87	93 ± 1	
COc1ccc(/C=N/NC(=O)Cn2cnc3c2c(=O)n(C)c(=O)n3C)cc1O [18i, (E)-2-(1,3-Dimethyl-2,6-dioxo-1,2,3,6-tetrahydro-7H-purin-7-yl)-N′-(3-hydroxy-4-methoxybenzylidene)acetohydrazide]	63.2 ± 0.93	105 ± 1.2	
COc1cc(/C=N/NC(=O)Cn2cnc3c2c(=O)n(C)c(=O)n3C)ccc1O [18j, (E)-2-(1,3-Dimethyl-2,6-dioxo-1,2,3,6-tetrahydro-7H-purin-7-yl)-N′-(4-hydroxy-3-methoxybenzylidene)acetohydrazide]	92.2 ± 0.86	89 ± 1	IC50 [3]: 14.6 ± 0.5 µM
COc1ccc(/C=N/NC(=O)Cn2cnc3c2c(=O)n(C)c(=O)n3C)cc1 [18l, (E)-2-(1,3-Dimethyl-2,6-dioxo-1,2,3,6-tetrahydro-7H-purin-7-yl)-N′-(4-methoxybenzylidene)acetohydrazide]	85.4 ± 0.87	93 ± 1	
COC(=O)[C@@H](N)CCCNC(N)=N[N+](=O)[O-] [L-NAME, L-NG-nitro arginine methyl ester, reference compound]			inhibition at 250 µM [1]: 84.8 ± 0.9%
Cn1c(=O)c2c(ncn2CC(=O)O)n(C)c1=O [compound 2, theophylline-7-acetic acid, reference compound]	58.7 ± 1.82	85 ± 1.7	
Cn1c(=O)c2c(ncn2CC(=O)N/N=C2/C(=O)Nc3ccccc32)n(C)c1=O [compound 19, (E)-2-(1,3-Dimethyl-2,6-dioxo-1,2,3,6-tetrahydro-7H-purin-7-yl)-N′-(2-oxoindolin-3-ylidene)acetohydrazide]	90 ± 0.88	89.5 ± 1.1	half-life at 75 μM [4]: 1.8 h; Reduction of TNF-α (TNF-α; 1 μM): 31.8%; Reduction of TNF-α (TNF-α; 10 μM): 53%; IC50 [3]: 3.3 ± 0.2 µM; Reduction of IL-1β (IL-1β; 1 μM): 49.4%; Downregulation of IL-1β (IL-1β; 10 μM): 66.7%; Decrease of IL-6 levels (IL-6; 1 μM, RAW 264.7, in comparison to cells induced by LPS): 47.5%; Decrease of IL-6 levels (IL-6; 10 μM, RAW 264.7, in comparison to LPS treated cells): 57.7%
NC(=S)NN=C1C(=O)Nc2ccccc21 [isatin thiosemicarbazone]			Survival rate (SK-N-SH Cells): approximately 100%
Cn1c(=O)c2[nH]cnc2n(C)c1=O [theophylline]			Effect on TNF production (TNF): suppress TNF production
